Like-named read-outs stand apart in the source and are kept apart here.
Experiments:
SARS-CoV-2 Mpro = SARS-CoV-2 Mpro (Severe acute respiratory syndrome coronavirus 2, UniProt P0DTD1); test: Main protease (Mpro) assay, 3CL Protease assay kit; format: biochemical
human furin protease = target: T1, human furin protease (Homo sapiens, UniProt P09958); test: Furin protease assay; format: biochemical
T1 construct: purchased BPS Bioscience 78040

[1] = tested on: SARS-CoV-2 strain NRC-03-nhCoV; test: microbe, parasite or virus in culture; format: cell-based
SARS-CoV-2 PLpro = SARS-CoV-2 PLpro (Severe acute respiratory syndrome coronavirus 2, UniProt P0DTD1); test: Papain-like protease (PLpro) assay; format: biochemical; conditions: for IC50: dose response curve, read-out: IC50 against SARS-CoV-2 PLpro
in vitro = conditions: human
[2] = read-out: IC50 against human furin protease

T1 sequence (P09958 108-794): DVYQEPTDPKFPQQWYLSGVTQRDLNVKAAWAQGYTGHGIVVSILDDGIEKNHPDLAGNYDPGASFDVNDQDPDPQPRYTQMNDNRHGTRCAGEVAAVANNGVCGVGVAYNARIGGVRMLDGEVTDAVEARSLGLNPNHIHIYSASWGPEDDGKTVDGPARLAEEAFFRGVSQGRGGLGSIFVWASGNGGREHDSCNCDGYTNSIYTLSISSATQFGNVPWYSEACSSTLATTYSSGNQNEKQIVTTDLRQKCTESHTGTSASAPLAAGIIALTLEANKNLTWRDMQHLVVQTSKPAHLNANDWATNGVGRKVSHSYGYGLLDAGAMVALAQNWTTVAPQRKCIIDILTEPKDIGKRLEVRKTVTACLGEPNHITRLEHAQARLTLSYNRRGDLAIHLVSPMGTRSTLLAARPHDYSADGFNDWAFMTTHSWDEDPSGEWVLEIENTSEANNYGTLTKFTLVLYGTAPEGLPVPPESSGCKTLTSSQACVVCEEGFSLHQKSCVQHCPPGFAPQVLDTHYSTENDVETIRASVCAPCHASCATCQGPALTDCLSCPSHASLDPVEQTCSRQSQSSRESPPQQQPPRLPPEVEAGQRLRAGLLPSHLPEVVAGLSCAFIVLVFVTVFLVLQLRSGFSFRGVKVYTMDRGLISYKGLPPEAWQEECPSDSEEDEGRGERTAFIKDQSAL

Compound `N=C(N/N=C/c1ccncc1)c1nonc1NCNc1nonc1C(=N)N/N=C/c1ccncc1` [Compound 13M] has an IC50 (SARS-CoV-2 Mpro; compound 13M, FIG. 10B-10C, read-out: IC50 against Mpro enzyme (converted)) of 13.4 µM, an IC50 (human furin protease) of 86.2 µM and an IC50 ([1]; Severe acute respiratory syndrome coronavirus 2, Vero C1008, compound 13M, FIG. 10A, read-out: antiviral activity in vitro IC50) of about 8 µg/mL.
For `N=C(N/N=C/c1ccccc1O)c1nonc1NCNc1nonc1C(=N)N/N=C/c1ccccc1O` [Compound 13], the IC50 (human furin protease; [2]) was 0.29 µM, the IC50 ([1]; Severe acute respiratory syndrome coronavirus 2, Vero C1008, Vero-E6 cells, strain NRC-03-nhCoV, 72 h, read-out: IC50 inhibition activity against SARS-CoV-2) was 0.11 µM and the IC50 (SARS-CoV-2 PLpro) was 0.063 µM. For the same compound, the IC50 at 24 h (in vitro) was 0.41 µM.
Work on `COc1cc(C(NC2=NC(=O)C(CC(=O)Nc3ccc(C(=O)O)cc3)S2)c2c(O)[nH]c(=O)[nH]c2=O)ccc1O` (stereo not shown) [Compound 7] yielded an inhibition at 100 µg/mL (SARS-CoV-2 Mpro; read-out: inhibition activity against Mpro enzyme (inhibition percentage)) of 31 ± 2%, an IC50 (human furin protease; [2]) of 0.29 µM and an IC50 ([1]; Severe acute respiratory syndrome coronavirus 2, Vero C1008, 72 h, read-out: IC50 inhibition activity against SARS-CoV-2) of 0.77 µM. The IC50 (SARS-CoV-2 PLpro) was 0.085 µM, the “inhibition activity against SARS-CoV-2 PLpro” value (SARS-CoV-2 PLpro; screening, mean±SEM of 3 replicas) was 56.4% and the IC50 (in vitro) was 1.67 µM.
